Results reported in ChEMBL document CHEMBL5518223, “Structure-Guided Elaboration of a Fragment-Like Hit into an Orally Efficacious Leukotriene A4 Hydrolase Inhibitor” (J Med Chem, 2024).
≈ marks a conversion by molar mass, not a printed value.

Experiments:
in vivo = details: C57/BL6, mouse, blood, po, 10 mg/kg
Description: Drug concentration in C57/BL6 mouse blood at 10 mg/kg, po bid measured after 14 hrs

in vitro = details: dog, MDCK
Description: Apparent permeability coefficient of the compound across apical to basolateral side in dog MDCKII-LE cells

[1] = target: T1, Leukotriene A-4 hydrolase (Homo sapiens, UniProt P09960); test: Inhibition of LTA4H (unknown origin) using Arg-AMC as substrate preincubated with compound for 15 mins followed by substrate addition and measured after every 10 mins for 30 mins by fluorescence based analysis
T1 sequence (P09960 whole entry): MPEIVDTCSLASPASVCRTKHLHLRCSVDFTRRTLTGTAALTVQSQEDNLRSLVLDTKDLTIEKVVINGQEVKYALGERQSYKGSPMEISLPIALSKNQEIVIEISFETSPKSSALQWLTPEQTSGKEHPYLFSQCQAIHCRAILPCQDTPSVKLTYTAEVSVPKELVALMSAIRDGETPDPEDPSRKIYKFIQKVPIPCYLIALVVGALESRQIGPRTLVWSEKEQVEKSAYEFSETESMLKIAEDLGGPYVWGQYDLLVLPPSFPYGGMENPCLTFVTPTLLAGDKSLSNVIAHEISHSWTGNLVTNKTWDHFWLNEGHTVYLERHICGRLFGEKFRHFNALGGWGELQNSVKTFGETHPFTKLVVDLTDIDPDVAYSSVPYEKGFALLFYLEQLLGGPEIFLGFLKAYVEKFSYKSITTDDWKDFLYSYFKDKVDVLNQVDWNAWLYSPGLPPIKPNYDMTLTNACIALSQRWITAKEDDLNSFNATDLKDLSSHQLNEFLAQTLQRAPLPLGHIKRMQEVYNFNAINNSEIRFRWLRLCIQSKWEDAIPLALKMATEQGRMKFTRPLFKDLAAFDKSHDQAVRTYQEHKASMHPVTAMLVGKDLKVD

Mus musculus = organism: Mus musculus; test: animal or person; details: C57/BL6, po, 14 h, read-out: INH
Description: Inhibition of calcium ionophore A23187-stimulated LTB4 release in C57/BL6 mouse model at 10 mg/kg, po bid measured after 14 hrs

physchem [2] = details: buffer, pH 6.8
Description: Solubility of the compound at pH 6.8 using amorphous form of sample

physchem [3] = details: octanol/water, pH 7.4
[4] = target: T2, Voltage-gated inwardly rectifying potassium channel KCNH2 (Homo sapiens, UniProt Q12809); test: Inhibition of hERG by manual patch clamp assay; format: toxicity
T2 sequence (Q12809 whole entry): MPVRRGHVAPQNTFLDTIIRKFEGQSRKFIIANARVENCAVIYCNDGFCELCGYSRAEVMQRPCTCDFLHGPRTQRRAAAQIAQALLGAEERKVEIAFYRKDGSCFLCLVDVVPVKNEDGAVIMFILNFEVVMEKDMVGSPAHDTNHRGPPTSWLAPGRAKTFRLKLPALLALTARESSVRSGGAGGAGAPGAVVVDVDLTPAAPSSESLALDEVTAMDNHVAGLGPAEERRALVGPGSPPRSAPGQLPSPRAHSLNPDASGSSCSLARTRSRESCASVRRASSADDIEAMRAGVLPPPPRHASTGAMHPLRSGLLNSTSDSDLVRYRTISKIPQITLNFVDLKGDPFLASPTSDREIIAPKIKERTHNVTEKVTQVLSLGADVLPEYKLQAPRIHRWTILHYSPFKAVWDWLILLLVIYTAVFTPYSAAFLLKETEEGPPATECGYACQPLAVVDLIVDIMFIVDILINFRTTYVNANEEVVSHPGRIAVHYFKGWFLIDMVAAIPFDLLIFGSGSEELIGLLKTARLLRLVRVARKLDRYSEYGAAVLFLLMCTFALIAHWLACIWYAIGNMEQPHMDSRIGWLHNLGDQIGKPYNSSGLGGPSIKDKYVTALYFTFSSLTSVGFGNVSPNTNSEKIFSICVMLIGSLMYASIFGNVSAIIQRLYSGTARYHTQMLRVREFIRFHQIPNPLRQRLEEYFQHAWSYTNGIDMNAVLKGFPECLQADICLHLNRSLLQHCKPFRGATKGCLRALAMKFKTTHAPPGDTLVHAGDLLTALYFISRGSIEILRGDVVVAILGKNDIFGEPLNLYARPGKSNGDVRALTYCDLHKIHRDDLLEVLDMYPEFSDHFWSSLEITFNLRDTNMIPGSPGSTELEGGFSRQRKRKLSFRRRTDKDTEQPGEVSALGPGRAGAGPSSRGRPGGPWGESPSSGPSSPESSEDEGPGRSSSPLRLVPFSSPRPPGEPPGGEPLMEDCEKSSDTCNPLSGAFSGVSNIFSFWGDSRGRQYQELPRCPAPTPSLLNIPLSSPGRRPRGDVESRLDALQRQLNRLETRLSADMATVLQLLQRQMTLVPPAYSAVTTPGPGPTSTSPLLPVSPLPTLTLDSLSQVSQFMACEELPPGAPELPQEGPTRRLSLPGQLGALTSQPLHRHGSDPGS

[5] = target: T2, Voltage-gated inwardly rectifying potassium channel KCNH2; test: Inhibition of hERG by microfluidic patch clamp assay; format: toxicity

| Compound | concentration at 14 h (in vivo) | IC50 [4] | IC50 [5] | further results |
| --- | --- | --- | --- | --- |
| N[C@@H](CC(=O)O)Cn1nnc(-c2ccc(Oc3ncc(Cl)cc3F)cc2)n1 | 184 nM | – | – | – |
| c1ccc(Oc2ccc(-c3c[nH]cn3)cc2)cc1 | 218 nM | – | – | Papp A→B (in vitro): 56 ×10⁻⁶ cm/s; IC50 [1]: 88 nM; inhibition in vivo at 10 mg/kg (Mus musculus): 93%; solubility (physchem [2]): 121 µM (≈ 28.6 µg/mL); logD (physchem [3]): 3.7 |
| c1cc(-c2ccc(Oc3ccc(CN4CCCC4)nc3)nc2)[nH]n1 | – | 19 µM | > 30 µM | – |
| c1cc(-c2ccc(Oc3ccc(CN4CCCCC4)nc3)nc2)[nH]n1 | – | 27 µM | > 30 µM | – |
| CN(C)Cc1ccc(Oc2ccc(-c3ccn[nH]3)cn2)cn1 | – | – | > 30 µM | – |
